Laboratory results: US20230137092A1, “Composition and Method for the Treatment and Prevention of Cardiac, Pulmonary, Dermal, and Renal Fibrosis” (EMERALD HEALTH PHARMACEUTICALS INC., priority 2020, published 2023)

Test system: E2F pathway
Test: RNA-Seq of myocardial tissue with GSEA of MSigDb hallmarks, Ang II preventive model
Type: in vivo, mouse
Conditions: cardiac RNA; Ang II-challenged mice; n=3 each group
Protocol: RNA seq analysis from RNA extracted of myocardial tissue was performed. Transcriptome libraries were constructed with TruSeq Illumina TruSeq mRNA Sample Prep v2 kit (#RS-122-2001). In brief, 300 ng of RNA from each sample was used to construct a cDNA library, followed by sequencing on the Illumina Hiseq 2500 with single end 50 bp reads and ˜30 million reads per sample.
RNA-Seq reads were pre-processed with fastp (v0.20.0) and aligned to mouse genome assembly grcm38 using HISAT2 (v2.1.0). Then, counts per gene were obtained with featureCounts (v1.6.1) and normalization and differential expression analyses were carried out using edgeR (v3.26.8), excluding those genes with less than 15 counts across all samples. Finally, the functional analysis was performed using the functional categories defined by MSigDb hallmarks for Mus musculus (V7.0) and the clusterProfiler package (v3.12.0).
The results confirmed the hallmarks that were enriched in the Ang II group versus control group were pathways related to fibrotic response; this was the case of IFN-α and IFN-γ response, TNF-α signaling via NF-KB, Epithelial Mesenchymal Transition and inflammatory responses, including IL6 JAK STAT Signaling (FIG. 6). The results were obtained after carrying out the functional analysis of the transcriptomic signatures in heart tissue. […]

C=C(C)C1CCC(C)=C[C@H]1C1=C(O)C(=O)C(CCCCC)=C(NCc2ccccc2)C1=O (stereo partly shown) [Formula (VIII)]
expression of a set of genes of E2F pathway (RNA-Seq): clearly downregulated
